These are literature values, as cited in PubChem BioAssay AID1259410 (Chemical Carcinogenesis Research Information System (CCRIS), 2018).

The data set has as its system rodent tumor promotion studies, tumor incidence. In words: CCRIS tumor promotion studies.
The mark [1] stands for this setting: Carcinogen: 7,12-DIMETHYLBENZ(A)ANTHRACENE, Doses [Carcinogen]: TOP, Route [Carcinogen]: DERMAL, Route [Promoter]: DERMAL, Species: MOUSE, Strain/Sex: FEMALE.

On to `ClC(Cl)(Cl)Cl`, for which the outcome (Carcinogen: 3'-METHYL-4-DIMETHYLAMINOAZOBENZENE, Doses [Carcinogen]: DIET, Route [Carcinogen]: ORAL, Species: RAT, Strain/Sex: FEMALE) is reported as “liver”; the outcome (Carcinogen: (+/-)-TRANS-7,8-DIHYDROBENZO[A]PYRENE-7,8-DIOL, 61443-57-0, Doses [Carcinogen]: 1 UG CO-ADMINISTERED WITH PROMOTER DOSE, Doses [Promoter]: 1 UG INJECTED INTO NEWLY HATCHED SAC-FRY CO-ADMINISTERED WITH CARCINOGEN DOSE (STUDY DURATION: 9 MO), Route [Carcinogen]: INJECTION, Route [Promoter]: INJECTION, Species: FISH, Strain/Sex: RAINBOW TROUT/MALE,FEMALE) was “liver: tumor”; the outcome (Doses [Carcinogen]: 20 NG/SAC-FRY, Doses [Promoter]: 0, 1 ML/KG AT 21-DAY INTERVALS FOR A TOTAL OF 3 DOSES BEGINNING 25 D POST CARCINOGEN TREATMENT (STUDY DURATION: 3 MO), Route [Carcinogen]: INJECTION, Route [Promoter]: INTRAPERITONEAL, Species: FISH, Strain/Sex: RAINBOW TROUT) is recorded as “liver: basophilic carcinoma”.

As to `C=C(CC(=O)OC)C(=O)OC`, the outcome (Carcinogen: N-METHYLNITROSOUREA, 684-93-5, Doses [Carcinogen]: 100 PPM IN DRINKING WATER FOR 15 WK, Doses [Promoter]: 0, 0.5% IN DRINKING WATER FOR 37 WK BEGINNING POST CARCINOGEN TREATMENT (STUDY DURATION: 52 WK), Route [Carcinogen]: ORAL, Route [Promoter]: ORAL, Species: RAT, Strain/Sex: F344/MALE) is given as “glandular stomach: adenoma, carcinoma”.

With `CCOc1ccc(NC(C)=O)cc1`, the outcome reads like this: (Carcinogen: DIHYDROXY-DI-N-PROPYLNITROSAMINE, 53609-64-6, URACIL, 66-22-8, Carcinogen: DIHYDROXY-DI-N-PROPYLNITROSAMINE, 53609-64-6, URACIL, 66-22-8, Doses [Carcinogen]: 0.1% DHPN IN DRINKING WATER AND 3% URACIL IN THE DIET FOR 4 WK, Doses [Promoter]: 0, 2% IN DIET BEGINNING 1 WK POST CARCINOGEN TREATMENT AND CONTINUING FOR 35 WK (STUDY DURATION: 40 WK), Route [Carcinogen]: ORAL, ORAL, Route [Promoter]: ORAL, Species: RAT, Strain/Sex: F344/MALE) “kidney: adenoma or adenocarcinoma; urinary bladder: papilloma”; (Carcinogen: N-BUTYL-N-(4-HYDROXYBUTYL)NITROSAMINE, 3817-11-6, Doses [Carcinogen]: 0.05% IN DRINKING WATER FOR 4 WK, Doses [Promoter]: 0, 2% IN DIET FOR 8 WK AND 3 WK WITH A 4 WK INTERVAL BETWEEN TREATMENTS ADMINISTERED PRIOR TO CARCINOGEN TREATMENT (STUD, Route [Carcinogen]: ORAL, Route [Promoter]: ORAL, Species: MOUSE, Strain/Sex: NON/SHI/MALE) “renal pelvis: carcinoma”; (Carcinogen: N-BUTYL-N-(4-HYDROXYBUTYL)NITROSAMINE, Doses [Carcinogen]: 0.01, 0.05% IN DRINKING WATER FOR 4 WK, Doses [Promoter]: 2.5% IN DIET FOR 30 WK FOLLOWED BY CONTROL DIET FOR 6 WK, Route [Carcinogen]: ORAL, Route [Promoter]: ORAL, Species: RAT, Strain/Sex: WISTAR/MALE) “urinary bladder: papilloma, carcinoma”.

Regarding `N[C@@H](CC(=O)O)C(=O)O`, the outcome is “urinary bladder: carcinoma” (Carcinogen: N-BUTYL-N-(4-HYDROXYBUTYL)NITROSAMINE, 3817-11-6, Doses [Carcinogen]: 0.05% IN DRINKING WATER FOR 4 WK, Doses [Promoter]: 0, 5% IN DRINKING WATER FOR 36 WK BEGINNING POST CARCINOGEN TREATMENT (STUDY DURATION: 40 WK), Route [Carcinogen]: ORAL, Route [Promoter]: ORAL, Species: RAT, Strain/Sex: F344/FEMALE) and “urinary bladder: carcinoma” (Carcinogen: N-BUTYL-N-(4-HYDROXYBUTYL)NITROSAMINE, 3817-11-6, Doses [Carcinogen]: 0.05% IN DRINKING WATER FOR 4 WK, Doses [Promoter]: 0, 5% IN DRINKING WATER FOR 36 WK BEGINNING POST CARCINOGEN TREATMENT (STUDY DURATION: 40 WK), Route [Carcinogen]: ORAL, Route [Promoter]: ORAL, Species: RAT, Strain/Sex: F344/MALE).

As for `CCCCCCCCCC1(CCCCCC(=O)OC2C(C)C3(O)C(C=C(CO)CC4(O)C(=O)C(C)=CC43)C3C(C)(C)C23OC(C)=O)OCC(C)(C)N1[O]` (stereo not given), the outcome (Carcinogen: 7,12-DIMETHYLBENZ[A]ANTHRACENE, 57-97-6, Doses [Carcinogen]: 100 NMOL ONCE, Doses [Promoter]: 0, 5 NMOL 2/WK FOR 24 WK BEGINNING 1 WK POST CARCINOGEN DOSE (STUDY DURATION: 25 WK), Route [Carcinogen]: DERMAL, Route [Promoter]: DERMAL, Species: MOUSE, Strain/Sex: NMRI/FEMALE) is reported as “skin: tumor”.

Regarding `CCCCCCCCCC(=O)O[C@@]12C[C@@H](C)[C@@]3(O)[C@@H](C=C(CO)C[C@]4(O)C(=O)C(C)=C[C@@H]34)[C@@H]1C2(C)C`, the outcome (Carcinogen: 7,12-DIMETHYLBENZ[A]ANTHRACENE, 57-97-6, Doses [Carcinogen]: 100 NMOL ONCE, Doses [Promoter]: 0, 40 NMOL 2/WK FOR 48 WK (STUDY DURATION: 48 WK), Route [Carcinogen]: DERMAL, Route [Promoter]: DERMAL, Species: MOUSE, Strain/Sex: NMRI) was “skin: tumor”.

For the molecule `CCCCCC1(CCCCCC(=O)OC2C(C)C3(O)C(C=C(CO)CC4(O)C(=O)C(C)=CC43)C3C(C)(C)C23OC(C)=O)OCC(C)(C)N1[O]` (stereo not given), the outcome (Carcinogen: 7,12-DIMETHYLBENZ[A]ANTHRACENE, 57-97-6, Doses [Carcinogen]: 100 NMOL ONCE, Doses [Promoter]: 0, 20 NMOL 2/WK FOR 24 WK BEGINNING 1 WK POST CARCINOGEN DOSE (STUDY DURATION: 25 WK), Route [Carcinogen]: DERMAL, Route [Promoter]: DERMAL, Species: MOUSE, Strain/Sex: NMRI/FEMALE) is “skin: tumor”.

As for `CCCCCCCCCCCC`, the outcome under setting [1] is on record as “integumentary system (skin)”.

Turning to `Oc1ccc(I)cc1`, the outcome under setting [1] is reported as “integumentary system (skin)”.

For the molecule `CCCCN(CCCCO)N=O`, the outcome (Carcinogen: DIETHYLNITROSAMINE, 55-18-5, N-METHYLNITROSOUREA, 684-93-5, DIHYDROXY-DI-N- PROPYLNITRASAMINE, 53609-64-6, Carcinogen: DIETHYLNITROSAMINE, 55-18-5, N-METHYLNITROSOUREA, 684-93-5, DIHYDROXY-DI-N- PROPYLNITRASAMINE, 53609-64-6, Doses [Carcinogen]: 100 MG/KG/BW DEN ONCE AT BEGINNING OF STUDY THEN 20 MG/KG/BW MNU ONCE ON D 2, 5, 8 AND 11 OF STUDY FOLLOWED BY 0.1% DHPN, Doses [Promoter]: 0, 0.1% IN DRINKING WATER BEGINNING POST CARCINOGEN TREATMENT AND CONTINUING FOR DURATION OF STUDY (STUDY DURATION: 20 W, Route [Carcinogen]: INTRAPERITONEAL, INTRAPERITONEAL, ORAL, Route [Carcinogen]: INTRAPERITONEAL, INTRAPERITONEAL, ORAL, Route [Promoter]: ORAL, Species: RAT, Strain/Sex: F344/MALE) is “urinary bladder: transitional cell papilloma” and the outcome (Carcinogen: N-BIS(2-HYDROXYPROPYL)NITROSAMINE, 53609-64-6, N-ETHYL-N-HYDROXYETHYLNITROSAMINE, 13147-25-6, 3,2'-DIMETHYL-4-AMINOB, Carcinogen: N-BIS(2-HYDROXYPROPYL)NITROSAMINE, 53609-64-6, N-ETHYL-N-HYDROXYETHYLNITROSAMINE, 13147-25-6, 3,2'-DIMETHYL-4-AMINOB, Doses [Carcinogen]: 1000 MG/KG IP IN SALINE ON DAY 1 AND 4, 1500 MG/KG IG IN DISTILLED WATER ON DAY 8 AND 11, 75 MG/KG SC IN CORN OIL ON D, Doses [Carcinogen]: 1000 MG/KG IP IN SALINE ON DAY 1 AND 4, 1500 MG/KG IG IN DISTILLED WATER ON DAY 8 AND 11, 75 MG/KG SC IN CORN OIL ON D, Doses [Promoter]: 0, 0.1% IN DRINKING WATER BEGINNING 1 WK POST LAST CARCINOGEN DOSE AND CONTINUING FOR 12 WK (STUDY DURATION: 16 WK), Route [Carcinogen]: INTRAPERITONEAL, GAVAGE, SUBCUTANEOUS, Route [Carcinogen]: INTRAPERITONEAL, GAVAGE, SUBCUTANEOUS, Route [Promoter]: ORAL, Species: RAT, Strain/Sex: F344/MALE) is given as “urinary bladder: tumor”.

For the molecule `C=CCC1(C(C)C)C(=O)NC(=O)NC1=O`, the outcome (Carcinogen: N-NITROSODIETHYLAMINE, 55-18-5, Doses [Carcinogen]: 75 MG/KG BW IN 0.85% SALINE ONCE, Doses [Promoter]: 0, 453 PPM IN DIET FOR DURATION OF STUDY BEGINNING 2 WK POST CARCINOGEN DOSE (STUDY DURATION: 78 WK), Route [Carcinogen]: INTRAPERITONEAL, Route [Promoter]: ORAL, Species: RAT, Strain/Sex: F344/MALE) is “liver: adenoma”.

For the molecule `CC1(OO)C=C(C(C)(C)C)C(=O)C(C(C)(C)C)=C1`, the outcome (Carcinogen: 7,12-DIMETHYLBENZ[A]ANTHRACENE, 57-97-6, Doses [Carcinogen]: 20 NMOL IN 200 µL ACETONE ONCE, Doses [Promoter]: 0, 8 UMOL 2/WK FOR 50 WK BEGINNING 10 D POST CARCINOGEN DOSE (STUDY DURATION: 52 WK), Route [Carcinogen]: DERMAL, Route [Promoter]: DERMAL, Species: MOUSE, Strain/Sex: SENCAR/FEMALE) is reported as “skin: papilloma or carcinoma” and the outcome (Carcinogen: 7,12-DIMETHYLBENZ[A]ANTHRACENE, 57-97-6, Doses [Carcinogen]: 20 NMOL IN 200 µL ACETONE ONCE, Doses [Promoter]: 0, 20 UMOL 2/WK FOR 50 WK BEGINNING 10 D POST CARCINOGEN DOSE (STUDY DURATION: 52 WK), Route [Carcinogen]: DERMAL, Route [Promoter]: DERMAL, Species: MOUSE, Strain/Sex: SENCAR/FEMALE) is “skin: papilloma or carcinoma”.

Take `CCCCCCCCCC(=O)OC`: the outcome under setting [1] is on record as “integumentary system (skin)”.
